Experimental data taken from the supplement of paper PMC10307832.

Columns and labels:
Assay in all cases: relative viability (nuclei count vs DMSO), 5 days (fraction); higher = more cells survive
[1] = compound: CC1(C)CCC(CN2CCN(c3ccc(C(=O)NS(=O)(=O)c4ccc(NCC5CCOCC5)c([N+](=O)[O-])c4)c(Oc4cnc5[nH]ccc5c4)c3)CC2)=C(c2ccc(Cl)cc2)C1 [Venetoclax] + CC(C)C[C@H](NC(=O)[C@H](Cc1ccccc1)NC(=O)c1cnccn1)B(O)O [Bortezomib] (partner 0.002 µM)
Outline: (§1)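 Relative viability is defined as nuclei in treated wells over nuclei in vehicle wells. Duplicate plates were run and medians reported. Lung cancer cell lines in 1536-well plates were dosed by pin tool one day after seeding, with one drug or with a fixed anchor-drug dose plus five library-drug doses (not always all listed) in √10 steps, and nuclei were counted after 5 days.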

[2] = compound: CC1(C)CCC(CN2CCN(c3ccc(C(=O)NS(=O)(=O)c4ccc(NCC5CCOCC5)c([N+](=O)[O-])c4)c(Oc4cnc5[nH]ccc5c4)c3)CC2)=C(c2ccc(Cl)cc2)C1 [Venetoclax] + C[C@]1(O)C[C@@H](c2nc(-c3ccc4ccc(-c5ccccc5)nc4c3)c3c(N)nccn32)C1 [Linsitinib] (partner 1 µM)
Outline: as §1

[3] = compound: Cn1cnc2c(F)c(Nc3ccc(Br)cc3Cl)c(C(=O)NOCCO)cc21 [Selumetinib] + CC(=O)c1c(C)c2cnc(Nc3ccc(N4CCNCC4)cn3)nc2n(C2CCCC2)c1=O [Palbociclib] (partner 0.5 µM)
Outline: as §1

[4] = compound: Cn1cnc2c(F)c(Nc3ccc(Br)cc3Cl)c(C(=O)NOCCO)cc21 [Selumetinib] + Cc1nc(Nc2ncc(C(=O)Nc3c(C)cccc3Cl)s2)cc(N2CCN(CCO)CC2)n1 [Dasatinib] (partner 0.075 µM)
Outline: as §1

| Cell Line | relative viability ([1]; first compound 0.01 µM) | relative viability ([1]; first compound 0.03162 µM) | relative viability ([1]; first compound 0.1 µM) | relative viability ([1]; first compound 0.3162 µM) | relative viability ([1]; first compound 1 µM) | relative viability ([2]; first compound 0.01 µM) | relative viability ([2]; first compound 0.03162 µM) | relative viability ([2]; first compound 0.1 µM) | relative viability ([2]; first compound 0.3162 µM) | relative viability ([2]; first compound 1 µM) | relative viability ([3]; first compound 0.02 µM) | relative viability ([3]; first compound 0.06325 µM) | relative viability ([3]; first compound 0.2 µM) | relative viability ([3]; first compound 0.6325 µM) | relative viability ([4]; first compound 0.02 µM) | relative viability ([4]; first compound 0.06325 µM) | relative viability ([4]; first compound 0.2 µM) | relative viability ([4]; first compound 0.6325 µM) |
| --- | --- | --- | --- | --- | --- | --- | --- | --- | --- | --- | --- | --- | --- | --- | --- | --- | --- | --- |
| NCI-H1792 | 0.764 | 0.928 | 1.05 | 0.924 | 0.86 | 0.469 | 0.46 | 0.467 | 0.408 | 0.591 | 0.646 | 0.566 | 0.46 | 0.4 | 0.787 | 0.802 | 0.704 | 0.597 |
| NCI-H1915 | 0.972 | 0.965 | 0.908 | 0.971 | 0.919 | 1.02 | 1.11 | 0.982 | 1.07 | 1.03 | 0.491 | 0.366 | 0.33 | 0.228 | 0.302 | 0.281 | 0.225 | 0.174 |
| NCI-H1975 | 0.424 | 0.393 | 0.35 | 0.344 | 0.299 | 1.02 | 0.971 | 0.869 | 0.92 | 0.92 | 0.517 | 0.509 | 0.467 | 0.388 | 0.333 | 0.299 | 0.272 | 0.269 |
| NCI-H1993 | 1.05 | 1.19 | 0.988 | 1.04 | 1.02 | 0.73 | 0.651 | 0.739 | 0.775 | 0.749 | 0.592 | 0.557 | 0.527 | 0.427 | 0.545 | 0.534 | 0.572 | 0.609 |
| NCI-H2009 | 1.09 | 0.951 | 1.03 | 0.991 | 1.02 | 1.2 | 1.14 | 1.09 | 1.09 | 1.11 | 0.15 | 0.136 | 0.122 | 0.143 | 0.233 | 0.183 | 0.163 | 0.151 |
| NCI-H2023 | 0.964 | 1 | 1.03 | 1.01 | 0.853 | 0.685 | 0.636 | 0.657 | 0.682 | 0.678 | 0.355 | 0.299 | 0.304 | 0.339 | 0.534 | 0.484 | 0.562 | 0.448 |
| NCI-H2085 | 0.976 | 1.14 | 1.07 | 0.923 | 0.946 | 0.881 | 0.782 | 0.853 | 0.909 | 0.853 | 0.464 | 0.462 | 0.415 | 0.355 | 0.25 | 0.23 | 0.204 | 0.215 |
| NCI-H2087 | 0.808 | 0.766 | 1 | 0.83 | 0.753 | 1.01 | 1.13 | 1.01 | 0.983 | 0.945 | 0.197 | 0.168 | 0.144 | 0.0937 | 0.535 | 0.293 | 0.273 | 0.13 |
| NCI-H2126 | 1.05 | 1.12 | 1.09 | 1.14 | 1.11 | 0.792 | 0.733 | 0.695 | 0.741 | 0.689 | 0.333 | 0.265 | 0.35 | 0.333 | 0.484 | 0.483 | 0.498 | 0.515 |
| NCI-H2228 | 1.04 | 0.99 | 0.972 | 1.21 | 1.19 | 0.717 | 0.754 | 0.631 | 0.724 | 0.625 | 0.566 | 0.516 | 0.669 | 0.481 | 0.428 | 0.454 | 0.405 | 0.39 |
| NCI-H2347 | 0.927 | 1.5 | 1.14 | 1.03 | 1.02 | 0.93 | 0.953 | 1.01 | 0.958 | 0.95 | 0.401 | 0.435 | 0.388 | 0.361 | 0.262 | 0.189 | 0.184 | 0.191 |
| NCI-H2405 | 0.956 | 1.09 | 0.94 | 0.982 | 0.907 | 0.931 | 0.955 | – | 0.989 | 0.9 | 0.485 | 0.434 | 0.395 | 0.344 | 0.216 | 0.22 | 0.17 | 0.187 |
| NCI-H3122 | 1.06 | 0.968 | 1.01 | 0.985 | 1.02 | 1.08 | 1.02 | 0.969 | 1.06 | 1.06 | 0.188 | 0.139 | 0.132 | 0.153 | 0.712 | 0.702 | 0.684 | 0.534 |
| PC-3 [JPC-3] | 0.764 | 0.822 | 0.794 | 0.771 | 0.829 | 0.922 | 1.01 | 0.977 | 0.938 | 0.949 | 0.484 | 0.566 | 0.515 | 0.571 | 0.974 | 0.99 | 0.976 | 0.841 |
| PC-14 | 0.765 | 0.939 | 0.843 | 0.839 | 0.789 | 0.925 | 0.993 | 1.04 | 0.818 | 0.811 | 0.482 | 0.369 | 0.363 | 0.309 | 0.265 | 0.26 | 0.256 | 0.217 |
| RERF-LC-KJ | 1.08 | 1.31 | 1.19 | 1.22 | 1.05 | 0.792 | 0.899 | 0.904 | 0.883 | 0.85 | 1.03 | 0.946 | 0.84 | 0.908 | 0.883 | 0.792 | 0.714 | 0.766 |
| SK-LU-1 | 0.937 | 1.19 | 1.24 | 1.34 | 1.08 | 1.01 | 1.25 | 0.998 | 1.04 | 1.13 | 0.381 | 0.353 | 0.362 | 0.263 | 0.177 | 0.208 | 0.181 | 0.141 |
